In patent US20220160617A1, “COMPOSITIONS AND METHODS FOR IMPROVING SKIN HEALTH AND FOR THE TREATMENT AND PREVENTION OF DISEASES, DISORDERS AND CONDITIONS ASSOCIATED WITH PATHOGENIC MICROBES” (DermBiont, Inc., priority 2019, published 2022):
≈ marks a conversion by molar mass, not a printed value. Like-named read-outs stand apart in the source and are kept apart here.

Experiments:
E. Coli ATCC25922 [1] = conditions: cited from earlier work
[2] = tested on: Janthinobacterium lividum strains; experiment: Antibiotic MIC tests, sensitivity summary; assay type: cell-based
Description: (§1) The antibiotic resistance profile and MICs tests were performed using Janthinobacterium lividum grown from cultures purified and grown in vegitone LB broth.

E. Coli ATCC25922 [3] = experiment: Antibiotic MIC test; assay type: cell-based
[4] = tested on: Janthinobacterium lividum DB00121; experiment: Antibiotic MIC test; assay type: cell-based
Description: as §1

[5] = tested on: Janthinobacterium lividum DB02378; experiment: Antibiotic MIC test; assay type: cell-based
Description: as §1

[6] = tested on: Janthinobacterium lividum DB02473; experiment: Antibiotic MIC test; assay type: cell-based
Description: as §1

[7] = tested on: Janthinobacterium lividum (DBI001); experiment: Biolog Phenotype MicroArray: components enhancing growth of Janthinobacterium in media; assay type: cell-based
[8] = tested on: Janthinobacterium lividum strains; experiment: Internal antibiotic resistance test (BD BBL Sensi-Disc zone of inhibition); assay type: cell-based; conditions: all 5 strains; disc content per antibiotic
Description: One Janthinobacterium lividum colony of 3-day old grown in 50% BHI agar was mixed well in 1 ml of 1×PBS buffer, diluted 10× and 100×, respectively. 200 μl of diluted Janthinobacterium lividum cells were evenly plated onto R2A/BHI agar plates in triplicate in 150 mm petri dishes. Antibiotic discs (BD BBL Sensi-Disc antimicrobial susceptibility test discs) were dispensed using a Disc dispenser (BD BBL Sensi-Disc Designer Dispenser System, 12-Place). Plates were incubated for 2-3 days at room temperature and imaged at the end of incubation.
The sensitivity of Janthinobacterium lividum to antibiotics is reflected by a clear zone of inhibition of Janthinobacterium lividum cells surrounding the antibiotic discs. The zone of inhibition was measured using ImageJ and was transformed into cm for analysis.

[9] = tested on: Janthinobacterium lividum DB00118; experiment: Antibiotic MIC test; assay type: cell-based
Description: as §1

[10] = tested on: fungal or bacterial pathogens; assay type: cell-based; conditions: components for enhancing function of human-derived Janthinobacterium lividum
[11] = Janthinobacterium lividum, DB00121
[12] = Janthinobacterium lividum, DB02378

For `C[C@@H](O)[C@H]1C(=O)N2C(C(=O)O)=C(S[C@@H]3CN[C@H](C(=O)N(C)C)C3)[C@H](C)[C@H]12` [Meropenem], the “MIC, CLSI QC ranges” value (E. Coli ATCC25922 [1]) is listed as 0.008 to 0.06 µg/mL and the “sensitivity of Janthinobacterium lividum strains to antibiotic” value [2] is listed as “less sensitive”.
In the case of `C[C@H]1[C@H](NC(=O)/C(=N\OC(C)(C)C(=O)O)c2csc(N)n2)C(=O)N1S(=O)(=O)O` [Aztreonam], the “MIC, CLSI QC ranges” value (E. Coli ATCC25922 [1]) is given as 0.06 to 0.25 µg/mL and the “sensitivity of Janthinobacterium lividum strains to antibiotic” value [2] is given as “less sensitive”.
Work on `CCC[C@@H]1C[C@@H](C(=O)N[C@@H]([C@H]2O[C@H](SC)[C@H](O)[C@@H](O)[C@H]2O)[C@H](C)Cl)N(C)C1` [Clindamycin] yielded an MIC (E. Coli ATCC25922 [3]; Escherichia coli, read-out: MIC) of over 64 µg/mL.
`C[C@H]1COc2c(N3CCN(C)CC3)c(F)cc3c(=O)c(C(=O)O)cn1c23` [Levofloxacin] showed an MIC [4, 11] of 0.125 µg/mL (≈ 0.346 µM).
In the case of `CO/N=C(\C(=O)N[C@@H]1C(=O)N2C(C(=O)[O-])=C(C[N+]3(C)CCCC3)CS[C@H]12)c1csc(N)n1` [Cefepime], the “MIC, CLSI QC ranges” value (E. Coli ATCC25922 [1]) is given as 0.016 to 0.12 µg/mL, the MIC [5, 12] is given as 0.125 µg/mL (≈ 0.26 µM) and the MIC [4, 11] is given as 0.125 µg/mL (≈ 0.26 µM). For the same molecule, the MIC ([6]; Janthinobacterium lividum, DB02473) was 0.125 µg/mL (≈ 0.26 µM).
In the case of `OC[C@@H](O)[C@@H](O)[C@H](O)[C@H](O)CO` [D-Mannitol], the “improvement of growth of human-derived Janthinobacterium lividum” value [7] is reported as “improve the growth”.
For `O=C(N[C@H](CO)[C@H](O)c1ccc([N+](=O)[O-])cc1)C(Cl)Cl` [Chloramphenicol], the “MIC, CLSI QC ranges” value (E. Coli ATCC25922 [1]) is given as 2 to 8 µg/mL, the “sensitivity of Janthinobacterium lividum strains to antibiotic” value [2] is given as “less sensitive” and the “sensitivity of Janthinobacterium lividum to antibiotic disc” value [8] is given as “sensitive”.
Work on Neomycin yielded an MIC (E. Coli ATCC25922 [3]) of 2 µg/mL, an MIC ([5]; strain DB02378) of 2 µg/mL and an MIC ([4]; strain DB00121) of 1 µg/mL. For the same molecule, the MIC ([6]; strain DB02473) was 2 µg/mL and the MIC ([9]; strain DB00118) was 2 µg/mL.
In the case of Tween 40, the “improvement of growth of human-derived Janthinobacterium lividum” value [7] is reported as “improve the growth” and the “Concentration Range of Efficacy” value [10] is reported as 2 to 20 mM.
For `CN(C)c1ccc(O)c2c1C[C@H]1C[C@H]3[C@H](N(C)C)C(O)=C(C(N)=O)C(=O)[C@@]3(O)C(O)=C1C2=O` [Minocycline], the MIC [5, 12] was 0.125 µg/mL (≈ 0.273 µM) and the MIC ([9]; Janthinobacterium lividum, DB00118) was 0.125 µg/mL (≈ 0.273 µM).
Amoxicillin clavulanate gave an MIC (E. Coli ATCC25922 [3]) of 8 µg/mL, an MIC ([5]; strain DB02378) of 1 µg/mL and an MIC ([4]; strain DB00121) of 0.5 µg/mL. For the same molecule, the MIC ([6]; strain DB02473) was 1 µg/mL, the MIC ([9]; strain DB00118) was 1 µg/mL and the “sensitivity of Janthinobacterium lividum strains to antibiotic” value [2] was “less sensitive”.
